This passage reports Ki and IC50 results from BindingDB's records for doi:10.1021/jm030165t (National Center For Genetic Engineering and Biotechnology …, 2004).

Experiment [1] concerns the target Bifunctional dihydrofolate reductase-thymidylate synthase (Plasmodium falciparum (isolate K1 / Thailand), UniProt P13922). The experiment is described as follows: Binding affinity towards wild-type dihydrofolate reductase of Plasmodium falciparum.
A short description of experiment [2]: In vitro anti-plasmodial activity against Plasmodium falciparum dihydrofolate reductase N51I/C59R/S108N (W2).
Experiment [3] can be described thus: In vitro anti-plasmodial activity against Plasmodium falciparum dihydrofolate reductase wild type (TM4/8.2).
The nature of experiment [4]: In vitro anti-plasmodial activity against Plasmodium falciparum dihydrofolate reductase […]/C59R/S108N/I164L (V1/S) mutant.
Experiment [5] can be described thus: In vitro anti-plasmodial activity against Plasmodium falciparum dihydrofolate reductase C59R+S108N/I164L (Csl-2) mutant.
A short description of experiment [6]: In vitro anti-plasmodial activity against Plasmodium falciparum dihydrofolate reductase C59R/S108N (K1CB1) mutant.
Experiment [7] in a line: In vitro anti-plasmodial activity against Plasmodium falciparum dihydrofolate reductase A16V/S108T (T9/94RC17) mutant.

Chain of Bifunctional dihydrofolate reductase-thymidylate synthase (P13922 whole entry): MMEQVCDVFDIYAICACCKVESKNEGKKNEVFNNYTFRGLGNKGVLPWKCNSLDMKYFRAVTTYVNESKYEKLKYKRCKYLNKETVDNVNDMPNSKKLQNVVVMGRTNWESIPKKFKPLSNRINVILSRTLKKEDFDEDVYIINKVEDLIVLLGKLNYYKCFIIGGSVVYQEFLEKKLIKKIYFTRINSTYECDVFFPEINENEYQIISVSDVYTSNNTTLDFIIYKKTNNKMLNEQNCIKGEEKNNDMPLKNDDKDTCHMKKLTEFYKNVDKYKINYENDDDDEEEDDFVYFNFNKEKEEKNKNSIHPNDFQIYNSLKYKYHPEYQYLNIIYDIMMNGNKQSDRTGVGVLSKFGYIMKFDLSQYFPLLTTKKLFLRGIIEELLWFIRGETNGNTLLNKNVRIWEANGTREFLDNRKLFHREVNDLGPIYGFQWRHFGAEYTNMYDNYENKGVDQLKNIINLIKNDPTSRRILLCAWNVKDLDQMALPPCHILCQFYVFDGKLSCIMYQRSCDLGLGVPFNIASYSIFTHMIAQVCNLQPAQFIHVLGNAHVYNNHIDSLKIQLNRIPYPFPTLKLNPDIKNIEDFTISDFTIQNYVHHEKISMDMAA

The term Ki denotes a dissociation constant, usually derived from enzyme kinetics or from competition with a known ligand. A high value points to lower affinity. As a reminder, the IC50 is the concentration that inhibits the measured activity by half. In experiment [1], `Nc1nc(N)c(-c2cccc(Cl)c2)c(CCCOC(=O)c2ccccc2)n1` [3-(2,6-diamino-5-(3-chlorophenyl)pyrimidin-4-yl)propyl benzoate] had a Ki of 0.0015 µM. Moreover, the IC50 in experiment [2] was determined as 2 µM; in experiment [3], 2.1 µM; in experiment [4], 7.5 µM; in experiment [5], 1.9 µM.
Consider `CC(C)C1(C)N=C(N)N=C(N)N1c1cccc(Cl)c1` (stereo not drawn) [1-(3-Chloro-phenyl)-6-isopropyl-6-methyl-1,6-dihydro-[1,3,5]triazine-2,4-diamine], for which the Ki in experiment [1] is 0.0255 µM.
`NC1=NC(c2cccc(Oc3ccc(Cl)cc3)c2)N(c2ccc(Cl)cc2)C(N)=N1` (stereo not drawn) [6-(3-(4-chlorophenoxy)phenyl)-1-(4-chlorophenyl)-1,6-dihydro-1,3,5-triazine-2,4-diamine] had a Ki in experiment [1] of 0.0014 µM. Besides, the IC50 turned out to be 3.3 µM in experiment [6], 0.42 µM in experiment [7] and 2.8 µM in experiment [3].
For `CC(=O)OCCCc1nc(N)nc(N)c1-c1ccccc1` [Acetic acid 3-(2,6-diamino-5-phenyl-pyrimidin-4-yl)-propyl ester], the affinity in experiment [1] corresponds to a Ki of 0.0106 µM.
For the compound `CCCCCCc1nc(N)nc(N)c1-c1ccccc1` [6-hexyl-5-phenylpyrimidine-2,4-diamine], the IC50 worked out at 2.3 µM in experiment [2], 0.06 µM in experiment [3], 6.4 µM in experiment [4] and 3 µM in experiment [5].
`NC1=NC(c2cccc(Oc3ccccc3)c2)N(c2cccc(Cl)c2)C(N)=N1` (stereo not drawn) [1-(3-chlorophenyl)-6-(3-phenoxyphenyl)-1,6-dihydro-1,3,5-triazine-2,4-diamine] showed a Ki in experiment [1] of 0.0011 µM. Also, the IC50 in experiment [6] is 2.7 µM; in experiment [7], 0.06 µM; in experiment [2], 3.5 µM; in experiment [3] it was 2.2 µM; in experiment [4] it was 3.6 µM; in experiment [5], 3.4 µM.
As for `COc1ccc(CCCc2nc(N)nc(N)c2-c2cccc(Cl)c2)cc1` [5-(3-Chloro-phenyl)-6-[3-(4-methoxy-phenyl)-propyl]-pyrimidine-2,4-diamine], the IC50 in experiment [2] stood at 4 µM; in experiment [3], 0.41 µM; in experiment [4], 4.7 µM; in experiment [5], 2.7 µM.
The compound `NC1=NC(c2cccc(Oc3cc(Cl)cc(Cl)c3)c2)N(c2cccc(Cl)c2)C(N)=N1` (stereo not drawn) [1-(3-Chloro-phenyl)-6-[3-(3,5-dichloro-phenoxy)-phenyl]-1,6-dihydro-[1,3,5]triazine-2,4-diamine] came in with a Ki in experiment [1] of 0.0018 µM. Moreover, the IC50 in experiment [6] is 3.1 µM; in experiment [7] it was 0.05 µM; in experiment [2], 3.4 µM; in experiment [3] it was 5.5 µM; in experiment [4], 3.9 µM; in experiment [5], 3.9 µM.
As to `CCCCCCC1(C)N=C(N)N=C(N)N1c1cccc(Cl)c1` (stereo not drawn) [1-(3-Chloro-phenyl)-6-hexyl-6-methyl-1,6-dihydro-[1,3,5]triazine-2,4-diamine], the Ki in experiment [1] was 0.0024 µM. The IC50 in experiment [6] stood at 0.48 µM; in experiment [2] it was 0.51 µM; in experiment [3] it was 0.06 µM; in experiment [4], 3.2 µM; in experiment [5], 0.49 µM.
In experiment [1], `NC1=NC(c2ccc(Oc3ccccc3)cc2)N(c2ccc(Cl)cc2)C(N)=N1` (stereo not drawn) [1-(4-chlorophenyl)-6-(4-phenoxyphenyl)-1,6-dihydro-1,3,5-triazine-2,4-diamine] gave a Ki of 0.0004 µM. Besides, the IC50 in experiment [6] is 3.1 µM; in experiment [7], 0.04 µM; in experiment [2], 3.2 µM; in experiment [3] it was 0.12 µM; in experiment [5], 4.8 µM.
In turn, `NC1=NC(c2cccc(Oc3ccccc3)c2)N(c2ccc(Cl)cc2)C(N)=N1` (stereo not drawn) [1-(4-Chloro-phenyl)-6-(3-phenoxy-phenyl)-1,6-dihydro-[1,3,5]triazine-2,4-diamine] showed a Ki in experiment [1] of 0.0005 µM.
For `NC1=NC(c2ccccc2)N(c2cccc(Cl)c2)C(N)=N1` (stereo not drawn) [1-(3-chlorophenyl)-6-phenyl-1,6-dihydro-1,3,5-triazine-2,4-diamine], the half-maximal inhibitory concentration (IC50) came out at 0.31 µM in experiment [6]; 0.02 µM in experiment [7]; 0.2 µM in experiment [2]; 0.56 µM in experiment [3]; 0.8 µM in experiment [4]; 0.25 µM in experiment [5].
In experiment [1], `CCCC1(C)N=C(N)N=C(N)N1c1cccc(Cl)c1` (stereo not drawn) [1-(3-chlorophenyl)-6-methyl-6-propyl-1,6-dihydro-1,3,5-triazine-2,4-diamine] showed a Ki of 0.0046 µM. The IC50 in experiment [6] came to 0.18 µM; in experiment [2] it was 0.28 µM; in experiment [3], 0.18 µM; in experiment [4] it was 1.1 µM; in experiment [5], 0.29 µM.
`NC1=NC(c2cccc(OCc3ccccc3)c2)N(c2cccc(Cl)c2)C(N)=N1` (stereo not drawn) [6-(3-(benzyloxy)phenyl)-1-(3-chlorophenyl)-1,6-dihydro-1,3,5-triazine-2,4-diamine] yielded a Ki in experiment [1] of 0.0023 µM. Also, the IC50 was determined as 4.9 µM in experiment [6]; 0.19 µM in experiment [7]; 3.3 µM in experiment [2]; 4 µM in experiment [3]; 7.5 µM in experiment [5].
As for `Nc1nc(N)c(-c2cccc(Cl)c2)c(CCOCCCOc2ccccc2)n1` [5-(3-chlorophenyl)-6-[2-(3-phenoxypropoxy)ethyl]pyrimidine-2,4-diamine], the IC50 in experiment [2] was determined as 4.5 µM; in experiment [3], 0.35 µM; in experiment [4], 4.6 µM; in experiment [5], 2.9 µM.
For `Nc1nc(N)c(-c2cccc(Cl)c2)c(CCCOC(=O)OCc2ccccc2)n1` [benzyl 3-(2,6-diamino-5-(3-chlorophenyl)pyrimidin-4-yl)propyl carbonate], in experiment [1], the Ki turned out to be 0.0012 µM. For the same compound, the IC50 in experiment [2] came out at 4.1 µM; in experiment [3] it was 1.9 µM; in experiment [4], 5.9 µM; in experiment [5] it was 1.9 µM.
Take `NC1=NC(c2cccc(Oc3cccc(C(F)(F)F)c3)c2)N(c2cccc(Cl)c2)C(N)=N1` (stereo not drawn) [1-(3-chlorophenyl)-6-(3-(3-(trifluoromethyl)phenoxy)phenyl)-1,6-dihydro-1,3,5-triazine-2,4-diamine]: affinity in experiment [1] was put at a Ki of 0.0027 µM. For the same compound, the IC50 came to 2.8 µM in experiment [6]; 0.18 µM in experiment [7]; 2.8 µM in experiment [2]; 3.2 µM in experiment [3]; 3.2 µM in experiment [4]; 3.4 µM in experiment [5].
`NC1=NC(c2cccc(OCCCOc3cc(Cl)c(Cl)cc3Cl)c2)N(c2cccc(Cl)c2)C(N)=N1` (stereo not drawn) [1-(3-chlorophenyl)-6-(3-(3-(2,4,5-trichlorophenoxy)propoxy)phenyl)-1,6-dihydro-1,3,5-triazine-2,4-diamine] returned a Ki in experiment [1] of 0.004 µM. Moreover, the IC50 in experiment [6] worked out at 7.4 µM; in experiment [7], 0.37 µM; in experiment [2] it was 3.2 µM; in experiment [3] it was 3 µM; in experiment [4], 8.6 µM; in experiment [5] it was 5.2 µM.
In experiment [1], `NC1=NC(c2cccc(OCc3ccccc3)c2)N(c2ccc(Cl)cc2)C(N)=N1` (stereo not drawn) [6-(3-Benzyloxy-phenyl)-1-(4-chloro-phenyl)-1,6-dihydro-[1,3,5]triazine-2,4-diamine] gave a Ki of 0.0007 µM.
Regarding `CC(=O)OCCCc1nc(N)nc(N)c1-c1cccc(Cl)c1` [Acetic acid 3-[2,6-diamino-5-(3-chloro-phenyl)-pyrimidin-4-yl]-propyl ester], the IC50 in experiment [2] turned out to be 2.1 µM; in experiment [3] it was 1.6 µM; in experiment [4], 5.3 µM; in experiment [5] it was 1.8 µM.
In the case of `Nc1nc(N)c(-c2ccccc2)c(CCCOC(=O)c2ccccc2)n1` [Benzoic acid 3-(2,6-diamino-5-phenyl-pyrimidin-4-yl)-propyl ester], in experiment [1], affinity was put at a Ki of 0.0034 µM.
`Nc1nc(N)c(-c2ccccc2)c(CCCc2ccccc2)n1`: the IC50 stood at 2.7 µM in experiment [2], 0.21 µM in experiment [3], 8.6 µM in experiment [4] and 2.7 µM in experiment [5].
On to `CCCC1(C)N=C(N)N=C(N)N1c1ccc(Cl)cc1` (stereo not drawn) [1-(4-Chloro-phenyl)-6-methyl-6-propyl-1,6-dihydro-[1,3,5]triazine-2,4-diamine], for which, in experiment [1], the affinity corresponds to a Ki of 0.0035 µM.
Take `CCc1nc(N)nc(N)c1-c1cccc(Cl)c1` [5-(3-chlorophenyl)-6-ethylpyrimidine-2,4-diamine]: the IC50 in experiment [2] worked out at 3.9 µM; in experiment [3] it was 0.42 µM; in experiment [4], 9.1 µM; in experiment [5], 2.5 µM.
`CC1(C)N=C(N)N=C(N)N1c1ccc(Cl)cc1` [Chlorazin]: the IC50 in experiment [7] is 3.7 µM; in experiment [2] it was 5.8 µM; in experiment [3], 0.04 µM; in experiment [4], greater than 100 µM; in experiment [5] it was 37.9 µM.
The compound `CC(C)C1(C)N=C(N)N=C(N)N1c1ccc(Cl)cc1` (stereo not drawn) [1-(4-Chloro-phenyl)-6-isopropyl-6-methyl-1,6-dihydro-[1,3,5]triazine-2,4-diamine] came in with a Ki in experiment [1] of 0.0365 µM.
Consider `Nc1nc(N)c(-c2cccc(Cl)c2)c(CCCc2ccccc2)n1`, for which the IC50 in experiment [2] amounted to 4.3 µM; in experiment [3] it was 0.67 µM; in experiment [4], 5.7 µM; in experiment [5], 3.6 µM.
Regarding `CCCOc1ccc(C2N=C(N)N=C(N)N2c2cccc(Cl)c2)cc1` (stereo not drawn) [1-(3-chlorophenyl)-6-(4-propoxyphenyl)-1,6-dihydro-1,3,5-triazine-2,4-diamine], the half-inhibitory concentration (IC50) was found to be 1 µM in experiment [6]; 0.004 µM in experiment [7]; 0.38 µM in experiment [2]; 0.25 µM in experiment [3]; 2.9 µM in experiment [4]; 2.9 µM in experiment [5].
On to `Nc1nc(N)c(-c2cccc(Cl)c2)c(CCCO)n1` [3-[2,6-Diamino-5-(3-chloro-phenyl)-pyrimidin-4-yl]-propan-1-ol], for which, in experiment [1], affinity was put at a Ki of 0.0092 µM. Moreover, the IC50 in experiment [2] came to 4.5 µM; in experiment [3], 1.1 µM; in experiment [4], 6.2 µM; in experiment [5] it was 1.9 µM.
